Experimental data from US7186744B2, “Prostamides for the treatment of glaucoma and related diseases” (Allergan, Inc., priority 2003, dated 2007).
Marks after values point to notes of the source that are not given here.

Tested on: dogs (Beagle)
Assay: Intraocular pressure studies by pneumatonometry in dogs
Assay type: in vivo
Conditions: conscious Beagle dogs, topical 25 μL drop, 0.03% drug
Experimental: Intraocular pressure studies were carried out for compounds 1–3 by pneumatonometry in dogs (Beagle) of both sexes (10–15 kg). The animals remained conscious throughout the study and were gently restrained by hand. Drugs were administered topically to one eye as a 25 μL volume drop comprising 0.03% drug, 0.1% polysorbate 80:10 mM TRIS, the other eye received 0.1% polysorbate 80:10 mM TRIS. Proparacaine (0.1%) was used for corneal anesthesia during tonometry. Intraocular pressure was determined just before drug administration and at 2, 4 and 6 hours thereafter on each day of the 5 day study. […] Drug was administered immediately after the first IOP reading.

[1] = 0 hrs (just before drug administration)

Compound | Change in Intraocular Pressure (IOP) [1] | Change in Intraocular Pressure (IOP) (2 hrs) | Change in Intraocular Pressure (IOP) (4 hrs) | Change in Intraocular Pressure (IOP) (6 hrs) | Change in Intraocular Pressure (IOP) (24 hrs)
CCCCC[C@H](O)/C=C/[C@@H]1[C@@H](C/C=C\CCCC(=O)NCCc2ccc(O)c(O)c2)[C@@H](O)C[C@H]1O [Compound 2, (Z)-7-[(1R,2R,3R,5S)-3,5-Dihydroxy-2-((E)—(S)-3-hydroxy-oct-1-enyl)-cyclopentyl]-hept-5-enoic acid [2-(3,4-dihydroxy-phenyl)-ethyl]-amide] | 0 | −3.8* | −3.2** | −3.2** | −1.1*
CCCCC[C@H](O)/C=C/[C@@H]1[C@@H](C/C=C\CCCC(=O)NCCc2c[nH]c3ccc(O)cc23)[C@@H](O)C[C@H]1O [Compound 3, (Z)-7-[(1R,2R,3R,5S)-3,5-Dihydroxy-2-((E)—(S)-3-hydroxy-oct-1-enyl)-cyclopentyl]-hept-5-enoic acid [2-(5-hydroxy-1H-indol-3-yl)-ethyl]-amide] | 0 | −3.2* | −5.8* | −7.6** | −2.2
